Measurements: US20240208954A1, “OXADIAZOLE COMPOUND, PREPARATION METHOD THEREFOR, PHARMACEUTICAL COMPOSITION AND USE THEREOF” (SHANGHAI INSTITUTE OF MATERIA MEDICA, CHINESE ACADEMY OF …, priority 2020, published 2024)
Values joined by “and” are separate entries in the source; they are usually repeats but may differ in a detail not shown here. Equal values may be shown once. Read-outs that look alike come from different tables or passages of the source.

Test: Preliminary assessment of in vivo pharmacokinetics in rats
Settings: for Vd: read-out: Vss; for concentration at 0.083 h / concentration at 0.25 h / concentration at 0.5 h / concentration at 1 h / concentration at 2 h / concentration at 4 h / concentration at 6 h / concentration at 8 h / concentration at 24 h: read-out: Plasma drug concentrations in rats; for MRT inf: read-out: MRT0-∞
[1] = rat, in vivo, rats, intravenous 2 mg/kg, mean
[2] = rat, plasma, iv, 2 mg/kg, rats, intravenous 2 mg/kg, individual animals 1-3
[3] = rat, plasma, iv, 2 mg/kg, rats, intravenous 2 mg/kg, mean
[4] = rat, plasma, po, 20 mg/kg, rats, intragastric 20 mg/kg, individual animals 4-6
[5] = rat, plasma, po, 20 mg/kg, rats, intragastric 20 mg/kg, mean
[6] = rats, intragastric 20 mg/kg, individual animals 4-6, listed as DC411151
[7] = rats, intravenous 2 mg/kg, individual animals 1-3, listed as DC411151, 2 mg/kg

CC(C)Oc1ccc(-c2nc(-c3ccc(CN4CC(C(=O)O)C4)c4ccccc34)no2)cc1C#N.Cl [Compound A1, 1-((4-(5-(3-cyano-4-isopropoxyphenyl)-1,2,4-oxadiazol-3-yl)naphthalen-1-yl)methyl) azetidine-3-carboxylic acid hydrochloric acid]
Plasma drug concentrations in rats (intragastric 20 mg/kg, 4 h, individual animals 4-6, listed as DC411151): 635 ng/mL and 841 ng/mL
Plasma drug concentrations in rats (intragastric 20 mg/kg, 6 h, individual animals 4-6, listed as DC411151): 350 ng/mL and 289 ng/mL
Plasma drug concentrations in rats (intragastric 20 mg/kg, 8 h, individual animals 4-6, listed as DC411151): 64.0 ng/mL and 57.0 ng/mL
Plasma drug concentrations in rats (intragastric 20 mg/kg, 24 h, individual animals 4-6, listed as DC411151): 2.49 ng/mL and 2.92 ng/mL
Plasma drug concentrations in rats (intravenous 2 mg/kg, 0.083 h, individual animals 1-3, listed as DC411151, 2 mg/kg): 3720 ng/mL and 3390 ng/mL
Plasma drug concentrations in rats (intravenous 2 mg/kg, 0.25 h, individual animals 1-3, listed as DC411151, 2 mg/kg): 2650 ng/mL and 2700 ng/mL
Plasma drug concentrations in rats (intravenous 2 mg/kg, 0.5 h, individual animals 1-3, listed as DC411151, 2 mg/kg): 1710 ng/mL and 1890 ng/mL
Plasma drug concentrations in rats (intravenous 2 mg/kg, 1 h, individual animals 1-3, listed as DC411151, 2 mg/kg): 1110 ng/mL and 951 ng/mL
Plasma drug concentrations in rats (intravenous 2 mg/kg, 2 h, individual animals 1-3, listed as DC411151, 2 mg/kg): 563 ng/mL and 528 ng/mL
Plasma drug concentrations in rats (intravenous 2 mg/kg, 4 h, individual animals 1-3, listed as DC411151, 2 mg/kg): 138 ng/mL and 172 ng/mL
Plasma drug concentrations in rats (intravenous 2 mg/kg, 6 h, individual animals 1-3, listed as DC411151, 2 mg/kg): 51.4 ng/mL and 47 ng/mL
Plasma drug concentrations in rats (intravenous 2 mg/kg, 8 h, individual animals 1-3, listed as DC411151, 2 mg/kg): 13.6 ng/mL and 16.9 ng/mL
Plasma drug concentrations in rats (intravenous 2 mg/kg, 24 h, individual animals 1-3, listed as DC411151, 2 mg/kg): BQL and 1.94 ng/ml
Tmax (rat, in vivo, po, rats, intragastric 20 mg/kg, individual animals 4-6, read-out: Tmax): 1 h
AUC0-t (rat, in vivo, po, rats, intragastric 20 mg/kg, mean, read-out: AUC0-t): 8780 ng·h/mL
Cmax (rat, in vivo, po, rats, intragastric 20 mg/kg, mean, read-out: Cmax): 2760 ng/mL
clearance [1]: 8.66 mL/min/kg
half-life [1]: 3.04 h
Vd [1]: 0.758 L/kg
concentration at 0.083 h (rat, plasma, iv, 2 mg/kg, intravenous 2 mg/kg, 0.083 h, individual animals 1-3): 3940 ng/mL
concentration at 0.083 h (rat, plasma, iv, 2 mg/kg, intravenous 2 mg/kg, 0.083 h, mean): 3680 ng/mL
concentration at 0.25 h (rat, plasma, iv, 2 mg/kg, intravenous 2 mg/kg, 0.25 h, individual animals 1-3): 2950 ng/mL
concentration at 0.25 h (rat, plasma, iv, 2 mg/kg, intravenous 2 mg/kg, 0.25 h, mean): 2770 ng/mL
concentration at 0.5 h (rat, plasma, iv, 2 mg/kg, intravenous 2 mg/kg, 0.5 h, individual animals 1-3): 1570 ng/mL
concentration at 0.5 h (rat, plasma, iv, 2 mg/kg, intravenous 2 mg/kg, 0.5 h, mean): 1720 ng/mL
concentration at 1 h (rat, plasma, iv, 2 mg/kg, intravenous 2 mg/kg, 1 h, individual animals 1-3): 900 ng/mL
concentration at 1 h (rat, plasma, iv, 2 mg/kg, intravenous 2 mg/kg, 1 h, mean): 987 ng/mL
concentration at 2 h (rat, plasma, iv, 2 mg/kg, intravenous 2 mg/kg, 2 h, individual animals 1-3): 419 ng/mL
concentration at 2 h (rat, plasma, iv, 2 mg/kg, intravenous 2 mg/kg, 2 h, mean): 503 ng/mL
concentration at 4 h (rat, plasma, iv, 2 mg/kg, intravenous 2 mg/kg, 4 h, individual animals 1-3): 128 ng/mL
concentration at 4 h (rat, plasma, iv, 2 mg/kg, intravenous 2 mg/kg, 4 h, mean): 146 ng/mL
concentration at 6 h (rat, plasma, iv, 2 mg/kg, intravenous 2 mg/kg, 6 h, individual animals 1-3): 45.8 ng/mL
concentration at 6 h (rat, plasma, iv, 2 mg/kg, intravenous 2 mg/kg, 6 h, mean): 48.1 ng/mL
concentration at 8 h (rat, plasma, iv, 2 mg/kg, intravenous 2 mg/kg, 8 h, individual animals 1-3): 11.8 ng/mL
concentration at 8 h (rat, plasma, iv, 2 mg/kg, intravenous 2 mg/kg, 8 h, mean): 14.1 ng/mL
concentration at 24 h (rat, plasma, iv, 2 mg/kg, intravenous 2 mg/kg, 24 h, individual animals 1-3): 1.16 ng/mL
concentration at 24 h (rat, plasma, iv, 2 mg/kg, intravenous 2 mg/kg, 24 h, mean): 1.55 ng/mL
AUC(0-inf) [2]: 3570 ng·h/mL
clearance [2]: 9.34 mL/min/kg
AUC0-t (rat, plasma, iv, 2 mg/kg, rats, intravenous 2 mg/kg, individual animals 1-3, read-out: AUC0-t): 3550 ng·h/mL
MRT inf [2]: 1.2 h
Vd [2]: 0.672 L/kg
AUC(0-inf) [3]: 3860 ng·h/mL
AUC0-t (rat, plasma, iv, 2 mg/kg, rats, intravenous 2 mg/kg, mean, read-out: AUC0-t): 3850 ng·h/mL
MRT inf [3]: 1.47 h
concentration at 0.25 h (rat, plasma, oral, 20 mg/kg, intragastric 20 mg/kg, 0.25 h, mean): 1270 ng/mL
concentration at 0.5 h (rat, plasma, oral, 20 mg/kg, intragastric 20 mg/kg, 0.5 h, individual animals 4-6): 3130 ng/mL
concentration at 0.5 h (rat, plasma, oral, 20 mg/kg, intragastric 20 mg/kg, 0.5 h, mean): 2430 ng/mL
concentration at 1 h (rat, plasma, oral, 20 mg/kg, intragastric 20 mg/kg, 1 h, individual animals 4-6): 2560 ng/mL
concentration at 1 h (rat, plasma, oral, 20 mg/kg, intragastric 20 mg/kg, 1 h, mean): 2570 ng/mL
concentration at 2 h (rat, plasma, oral, 20 mg/kg, intragastric 20 mg/kg, 2 h, individual animals 4-6): 2290 ng/mL
concentration at 2 h (rat, plasma, oral, 20 mg/kg, intragastric 20 mg/kg, 2 h, mean): 1890 ng/mL
concentration at 4 h (rat, plasma, oral, 20 mg/kg, intragastric 20 mg/kg, 4 h, individual animals 4-6): 884 ng/mL
concentration at 4 h (rat, plasma, oral, 20 mg/kg, intragastric 20 mg/kg, 4 h, mean): 787 ng/mL
concentration at 6 h (rat, plasma, oral, 20 mg/kg, intragastric 20 mg/kg, 6 h, individual animals 4-6): 322 ng/mL
concentration at 6 h (rat, plasma, oral, 20 mg/kg, intragastric 20 mg/kg, 6 h, mean): 320 ng/mL
concentration at 8 h (rat, plasma, oral, 20 mg/kg, intragastric 20 mg/kg, 8 h, individual animals 4-6): 65.1 ng/mL
concentration at 8 h (rat, plasma, oral, 20 mg/kg, intragastric 20 mg/kg, 8 h, mean): 62 ng/mL
concentration at 24 h (rat, plasma, oral, 20 mg/kg, intragastric 20 mg/kg, 24 h, individual animals 4-6): 4.33 ng/mL
concentration at 24 h (rat, plasma, oral, 20 mg/kg, intragastric 20 mg/kg, 24 h, mean): 3.25 ng/mL
bioavailability (rat, plasma, oral, rats, 20 mg/kg by gavage vs 2 mg/kg intravenous, read-out: absolute bioavailability): 22.8%
Tmax (rat, plasma, po, 20 mg/kg, rats, 20 mg/kg by gavage, range over animals, read-out: peak time Tmax): 0.5 to 1 h
AUC(0-inf) [4]: 9600 ng·h/mL
half-life [4]: 2.45 h
AUC0-t (rat, plasma, po, 20 mg/kg, rats, intragastric 20 mg/kg, individual animals 4-6, read-out: AUC0-t): 9590 ng·h/mL
Cmax (rat, plasma, po, 20 mg/kg, rats, intragastric 20 mg/kg, individual animals 4-6, read-out: Cmax): 3070 ng/mL
MRT inf [4]: 2.55 h
Tmax (rat, plasma, po, 20 mg/kg, rats, intragastric 20 mg/kg, individual animals 4-6, read-out: Tmax): 0.5 h
AUC(0-inf) [5]: 8790 ng·h/mL
half-life [5]: 2.49 h
MRT inf [5]: 2.72 h
Tmax (rat, plasma, po, 20 mg/kg, rats, intragastric 20 mg/kg, mean, read-out: Tmax): 0.833 h
AUC0-t [6]: 10100 ng·h/mL and 6710 ng·h/mL
AUC0-∞ [6]: 10100 ng·h/mL and 6720 ng·h/mL
Cmax [6]: 3130 ng/mL and 2070 ng/mL
MRT0-∞ [6]: 2.62 h and 3.00 h
t1/2 [6]: 2.5 h and 2.51 h
clearance classification (rats, intravenous 2 mg/kg): low clearance drug
plasma clearance as share of rat liver blood flow (about 55 mL/min/kg) (rats, intravenous 2 mg/kg): 15.7%
AUC0-t [7]: 4030 ng·h/mL and 3960 ng·h/mL
AUC0-∞ [7]: 4040 ng·h/mL and 3980 ng·h/mL
CL [7]: 8.26 mL/min/kg and 8.38 mL/min/kg
MRT0-∞ [7]: 1.52 h and 1.69 h
Vss [7]: 0.752 L/kg and 0.85 L/kg
t1/2 [7]: 1.15 h and 3.67 h and 4.3 h
